Laboratory results from article PMC7408396, “IPEC-J2 rMdr1a, a New Cell Line with Functional Expression of Rat P-glycoprotein Encoded by Rat Mdr1a for Drug Screening Purposes” (Pharmaceutics, 2020).
Values belong to the molecule of their own block, whether it stands above or below them.

Columns and labels:
human P-gp [1] = target: T1, human P-gp (Homo sapiens, UniProt P08183); parameters: expressed in transfected cells; host or cells: IPEC-J2 (porcine intestinal epithelial cells), previously established IPEC-J2 MDR1 line; method as in PMID 27194478; conditions: MDCK II MDR1 cell monolayers; cited from earlier work
T1 sequence (P08183 whole entry): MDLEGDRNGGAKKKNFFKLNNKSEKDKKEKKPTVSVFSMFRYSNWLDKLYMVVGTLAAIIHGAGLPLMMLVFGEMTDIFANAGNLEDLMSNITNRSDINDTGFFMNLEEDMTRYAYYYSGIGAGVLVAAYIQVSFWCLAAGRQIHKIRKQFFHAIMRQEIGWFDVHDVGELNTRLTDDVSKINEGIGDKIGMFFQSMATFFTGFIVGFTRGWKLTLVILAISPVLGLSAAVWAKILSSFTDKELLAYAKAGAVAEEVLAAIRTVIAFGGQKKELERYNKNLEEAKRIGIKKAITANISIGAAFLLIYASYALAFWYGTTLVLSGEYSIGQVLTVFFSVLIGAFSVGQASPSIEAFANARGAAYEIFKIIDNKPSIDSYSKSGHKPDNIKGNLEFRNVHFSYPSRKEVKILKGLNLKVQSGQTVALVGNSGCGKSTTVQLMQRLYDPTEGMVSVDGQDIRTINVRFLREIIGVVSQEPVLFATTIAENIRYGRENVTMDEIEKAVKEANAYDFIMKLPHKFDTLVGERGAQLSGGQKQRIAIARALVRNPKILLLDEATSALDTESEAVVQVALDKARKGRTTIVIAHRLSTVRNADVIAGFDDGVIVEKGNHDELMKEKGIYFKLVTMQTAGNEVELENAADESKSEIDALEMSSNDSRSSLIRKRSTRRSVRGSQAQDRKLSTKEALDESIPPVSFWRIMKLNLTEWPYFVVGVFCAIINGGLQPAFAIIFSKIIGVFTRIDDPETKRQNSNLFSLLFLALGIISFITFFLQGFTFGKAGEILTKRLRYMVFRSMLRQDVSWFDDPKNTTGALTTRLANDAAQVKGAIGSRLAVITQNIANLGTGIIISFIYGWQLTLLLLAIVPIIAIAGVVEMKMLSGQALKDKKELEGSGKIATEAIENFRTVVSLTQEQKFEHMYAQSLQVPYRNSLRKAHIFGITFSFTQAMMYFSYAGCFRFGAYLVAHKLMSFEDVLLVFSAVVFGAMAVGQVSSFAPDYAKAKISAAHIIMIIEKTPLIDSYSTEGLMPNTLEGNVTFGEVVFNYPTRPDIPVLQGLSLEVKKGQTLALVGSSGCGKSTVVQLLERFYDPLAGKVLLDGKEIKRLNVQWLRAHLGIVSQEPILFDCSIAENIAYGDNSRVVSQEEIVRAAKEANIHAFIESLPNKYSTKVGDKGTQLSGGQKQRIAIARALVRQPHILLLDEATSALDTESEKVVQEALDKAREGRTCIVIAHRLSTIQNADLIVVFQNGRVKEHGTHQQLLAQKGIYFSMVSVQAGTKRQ

[2] = parameters: method as in PMID 27194478; conditions: murine / rodent animal models; cited from earlier work
human P-gp [3] = target: T1, human P-gp; conditions: IPEC-J2 MDR1 cells overexpressing human P-gp; cited from earlier work
P-gp (human MDR1) = target: T2, P-gp (human MDR1) (Homo sapiens, UniProt P08183); assay: Bidirectional transport across IPEC-J2 MDR1 cell monolayers; format: in vitro ADME; conditions: for Papp A→B at 120 min / Papp B→A at 120 min: pH 7.4, Figure 5, mean ± SEM; for Papp A→B at 120 min: read-out: apparent permeability A–B; for Papp B→A at 120 min: read-out: apparent permeability B–A; for efflux ratio at 120 min: pH 7.4, Figure 5 comparison series
T2 construct: expressed in transfected cells; host or cells: IPEC-J2 (porcine intestinal epithelial cells), previously established IPEC-J2 MDR1 line
T2 sequence (P08183 whole entry): as above
Experimental: (§1) The cell monolayers were washed and pre-incubated in transport buffer consisting of 10 mM HEPES, 0.05% BSA and 0.038% sodium bicarbonate in HBSS pH 7.4 for 15 min at 37 °C on a shaking table (Unimax 2010, Heidolph, Schwabach, Germany) with a rotation of 75–90 rpm. The buffer was removed, and the transport experiments were initiated by the addition of donor solution containing radio-labelled compound in transport buffer in a concentration of 0.5 or 1 μ Ci/mL to either the apical or the basolateral chamber. […] Receiver samples were collected after 15, 30, 45, 60, 90 and 120 min from the basolateral (100 µL) or the apical chamber (50 µL), respectively.
(§2) Based on data from transport experiments, the apparent permeability coefficients (Papp) were calculated using Equation (1):(1) Papp = J/C0 = Qt/C0At where J denotes the steady-state flux (nmol·cm^−2·min^−1), C0 is the initial concentration in the donor compartment, A is the cross-sectional area of the permeable inserts (1.13 cm^2) and Qt represents the accumulated amount of drug in the receiver compartment at time t in minutes (corrected for the dilution arising from replacement of the sampled volume with blank transport buffer).

P-gp (rat Mdr1a) = assay: in vitro; conditions: for efflux ratio at 120 min: pH 7.4, efflux ratio, Figure 5 comparison series
[4] = Bidirectional transport across IPEC-J2 wild-type (WT) cell monolayers; format: in vitro ADME, porcine; conditions: pig, pH 7.4, mean ± SEM
Experimental: as §1, §2

human P-gp [5] = target: T1, human P-gp; parameters: expressed in transfected cells; method as in PMID 17045309; conditions: cell monolayers overexpressing human P-gp; cited from earlier work
mouse Mdr1a = system: mouse Mdr1a; parameters: method as in PMID 17045309; conditions: mouse Mdr1a-transfected LLC-PK1 and MDCK monolayers; cited from earlier work
[6] = system: P-gp (rat Mdr1a and human MDR1); assay: in vitro; conditions: human, pH 7.4, apparent permeability values (span over both directions), A–B and B–A, across both IPEC-J2 rMdr1a and IPEC-J2 MDR1 monolayers
IPEC-J2 mock cells [7] = assay: Puromycin selection of IPEC-J2 mock cells; format: cell-based, porcine; conditions: 2 μg/mL puromycin
Experimental: (§3) The rat Mdr1a cDNA, codon-optimized for expression in Sus scrofa, was synthesized by Geneart (Regensburg, Germany) and inserted in the pcDNA3.1 (+) cloning vector under control of a cytomegalovirus (CMV) promoter (see Supplemental Figure S1) and purchased from Geneart (Regensburg, Germany). […] Cells were seeded on permeable Transwell® inserts (1.13 cm^2 surface area, 0.4 µm pore size) at a density of 4 × 10^4 cells/insert and cultured for 15–18 days (with culture medium change three times per week) prior to experimentation.

rMDR1a-transfected cells = assay: Puromycin selection of rMdr1a-transfected IPEC-J2 cells; format: cell-based, porcine; conditions: 2 μg/mL puromycin
Experimental: as §3

rat Mdr1a = system: rat Mdr1a; parameters: method as in PMID 16779700; conditions: LLC-PK1 cells transfected with rat Mdr1a; cited from earlier work
rat Mdr1a P-gp = conditions: IPEC-J2 rMdr1a monolayers
human MDR1 = system: human MDR1; parameters: method as in PMID 16779700; conditions: LLC-PK1 cells transfected with human MDR1; cited from earlier work
IPEC-J2 mock cells [8] = assay: Bidirectional transport across IPEC-J2 mock cell monolayers (empty pcDNA 3.1(+) vector); conditions: 0.4 µM zosuquidar, Supplemental Figure S2
[9] = pH 7.4, apparent permeability A–B, IPEC-J2 rMdr1a monolayers, Figure 5, mean ± SEM

Compound: CNCC[C@@H](Oc1ccccc1C)c1ccccc1 [atomoxetine]
efflux ratio (ER) (human P-gp [1]): > 3
Kp,uu (unbound drug concentration in CNS relative to plasma) [2]: > 2

Compound: CN(C)CCCC1(c2ccc(F)cc2)OCc2cc(C#N)ccc21 (stereo not shown) [citalopram]
P-gp substrate identification (human P-gp [3]): P-gp substrates

Papp A→B at 120 min (P-gp (human MDR1)): 0.28 ± 0.03 ×10⁻⁶ cm/s
Papp at 120 min (P-gp (rat Mdr1a); pH 7.4, PB-A (apparent permeability in the efflux direction), late passages (14–16)): 16 ± 1 ×10⁻⁶ cm/s
Papp A→B at 120 min (P-gp (rat Mdr1a); [9]): 0.35 ± 0.03 ×10⁻⁶ cm/s
Papp A→B at 120 min (P-gp (rat Mdr1a); pH 7.4, permeability in the A–B direction, early passages (5–7)): 0.37 ± 0.1 ×10⁻⁶ cm/s
Papp A→B at 120 min (P-gp (rat Mdr1a); pH 7.4, permeability in the A–B direction, late passages (14–16)): 0.68 ± 0.62 ×10⁻⁶ cm/s
Papp A→B at 120 min ([4]; read-out: PA-B (apparent permeability, apical to basolateral)): 0.05 ± 0.05 ×10⁻⁶ cm/s
Papp B→A at 120 min ([4]; read-out: PB-A (apparent permeability, basolateral to apical)): 0.13 ± 0.17 ×10⁻⁶ cm/s
Compound: C[C@H]1O[C@@H](O[C@H]2[C@@H](O)C[C@H](O[C@H]3[C@@H](O)C[C@H](O[C@H]4CC[C@@]5(C)[C@H](CC[C@@H]6[C@@H]5C[C@@H](O)[C@]5(C)[C@@H](C7=CC(=O)OC7)CC[C@]65O)C4)O[C@@H]3C)O[C@@H]2C)C[C@H](O)[C@@H]1O [digoxin]

Compound: CC[C@@H](C(N)=O)N1CCCC1=O [levetiracetam]
polarized transport (human P-gp [5]): no polarized transport could be observed
polarized transport (mouse Mdr1a): showed polarized transport

Papp A→B at 120 min (P-gp (human MDR1)): 0.25 ± 0.02 ×10⁻⁶ cm/s
Papp B→A at 120 min (P-gp (human MDR1)): 0.37 ± 0.04 ×10⁻⁶ cm/s
efflux ratio at 120 min (P-gp (human MDR1)): 1.4
Papp B→A at 120 min (P-gp (rat Mdr1a); pH 7.4): 0.44 ± 0.11 ×10⁻⁶ cm/s
Papp A→B at 120 min (P-gp (rat Mdr1a); [9]): 0.33 ± 0.12 ×10⁻⁶ cm/s
efflux ratio at 120 min (P-gp (rat Mdr1a); IPEC-J2 rMdr1a monolayers): 1.5
Papp at 120 min (P-gp (rat Mdr1a); pH 7.4, paracellular permeability, IPEC-J2 rMdr1a monolayers, conclusion summary): ~0.3 ×10⁻⁶ cm/s
Papp at 120 min [6]: 0.25 to 0.44 ×10⁻⁶ cm/s
Compound: OC[C@@H](O)[C@@H](O)[C@H](O)[C@H](O)CO [mannitol]

Compound: Cc1cc2c(s1)Nc1ccccc1N=C2N1CCN(C)CC1 [olanzapine]
Papp A→B at 120 min (P-gp (human MDR1)): 23 ± 4 ×10⁻⁶ cm/s
Papp B→A at 120 min (P-gp (human MDR1)): 40 ± 3 ×10⁻⁶ cm/s
Papp A→B at 120 min (P-gp (rat Mdr1a); pH 7.4): 24 ± 3 ×10⁻⁶ cm/s
Papp B→A at 120 min (P-gp (rat Mdr1a); pH 7.4): 44 ± 3 ×10⁻⁶ cm/s

Compound: OCCN1CCN(CCCN2c3ccccc3Sc3ccc(Cl)cc32)CC1 [perphenazine]
efflux ratio (ER) (human P-gp [1]): > 3
Kp,uu (unbound drug concentration in CNS relative to plasma) [2]: > 2

Compound: O=C1NC(=O)C(c2ccccc2)(c2ccccc2)N1 [phenytoin]
polarized transport (human P-gp [5]): no polarized transport could be observed
polarized transport (mouse Mdr1a): showed polarized transport

Compound: COc1ccc(C[C@H](N)C(=O)N[C@H]2[C@@H](O)[C@H](n3cnc4c(N(C)C)ncnc43)O[C@@H]2CO)cc1 [puromycin]
cell survival under selection (IPEC-J2 mock cells [7]): died within three days
cell survival under selection (rMDR1a-transfected cells): survived the treatment

Compound: CN1CCN(CCCN2c3ccccc3Sc3ccc(C(F)(F)F)cc32)CC1 [trifluoperazine]
efflux ratio (ER) (human P-gp [1]): > 3
Kp,uu (unbound drug concentration in CNS relative to plasma) [2]: > 2

Papp A→B at 120 min (P-gp (human MDR1)): 1.5 ± 0.2 ×10⁻⁶ cm/s
Papp B→A at 120 min (P-gp (human MDR1)): 19 ± 6 ×10⁻⁶ cm/s
efflux ratio at 120 min (P-gp (human MDR1)): 12.4
Papp B→A at 120 min (P-gp (rat Mdr1a); pH 7.4): 20 ± 5 ×10⁻⁶ cm/s
Papp A→B at 120 min (P-gp (rat Mdr1a); [9]): 1.6 ± 0.2 ×10⁻⁶ cm/s
efflux ratio at 120 min (P-gp (rat Mdr1a); IPEC-J2 rMdr1a monolayers): 12.8
efflux ratio (rat Mdr1a P-gp; Figure 5 comparison series): 13
Compound: CC[C@]1(O)C[C@@H]2CN(CCc3c([nH]c4ccccc34)[C@@](C(=O)OC)(c3cc4c(cc3OC)N(C)[C@H]3[C@@](O)(C(=O)OC)[C@H](OC(C)=O)[C@]5(CC)C=CCN6CC[C@]43[C@@H]65)C2)C1 [vinblastine]
efflux ratio (rat Mdr1a): 18.4
efflux ratio (human MDR1): 12.5

Compound: O[C@@H](COc1cccc2ncccc12)CN1CCN([C@@H]2c3ccccc3[C@@H]3[C@H](c4ccccc42)C3(F)F)CC1 [zosuquidar]
effect on efflux transport of digoxin (rat Mdr1a P-gp; 0.4 µM zosuquidar): completely blocked
effect on digoxin transport (IPEC-J2 mock cells [8]): did not affect digoxin transport
